Results taken from patent US20170198196A1, “METHODS FOR CONTROLLING SOURING IN ENGINEERED SYSTEMS” (The Regents of the University of California, priority 2014, published 2017).
Entries after “also recorded” stand apart in the source; their conditions may differ. Where two headings read alike, the source gives them in different places.

Columns and labels:
[1] = system: marine enrichment cultures; experiment: Inhibition of sulfide production (Cline assay) in marine enrichment cultures; type: cell-based; conditions: for IC50: read-out: IC50 Seawater Sulfide Production
[2] = system: marine enrichment cultures; experiment: organism not typed; type: cell-based; conditions: read-out: IC50 Seawater Growth
[3] = system: Desulfovibrio cell suspensions; conditions: molybdate treated, after 60 minutes; cited from earlier work
[4] = system: nitrate reducing bacteria; conditions: molybdate treated cell suspensions; cited from earlier work
[5] = marine enrichment cultures, SI>2 classified as selective

Compound | selectivity and potency as inhibitor of sulfidogenesis versus growth, in words [1] | also measured
O=S(O)O [sulfite] | only inhibited growth and sulfidogenesis at high millimolar concentrations | 
O=NO [nitrite] | selective inhibitors | selectivity index (SI = growth IC50/sulfide IC50) [1]: ≈ 2
arsenate | not selective | 
O=[N+]([O-])O [nitrate] | selective inhibitors | Growth/Sulfide Ratio [1]: 41.3; fold higher IC50 than MFP [1]: ~8 fold; IC50 [1]: 6.34 mM
O=[Te](=O)(O)O [tellurate] | very potent and selective inhibitors of sulfate reduction | 
[O-][Cl+3]([O-])([O-])O [perchlorate] | selective inhibitors of sulfidogenesis | Growth/Sulfide Ratio [1]: 11.19; IC50 [1]: 3.25 mM; IC50 [2]: 36.3 mM
O=S(=O)(O)O [sulfate] | only inhibited growth and sulfidogenesis at high millimolar concentrations | 
O=[Se](=O)(O)O [selenate] | very potent and selective inhibitors of sulfate reduction | 
[O-][I+3]([O-])([O-])O [periodate] |  | selectivity and potency as inhibitor of sulfidogenesis versus growth, in words [1, 5]: nonspecific, but potent inhibitors of all growth
methanesulfonate | very weak and nonspecific inhibitors | 
O=[Te](O)O [tellurite] | very potent and selective inhibitors of sulfate reduction | 
[O]=[W](=[O])([O-])[O-] [tungstate] | specific inhibitors of sulfide production | selectivity index (SI = growth IC50/sulfide IC50) [1]: 589
O=[Se](O)O [selenite] | very potent and selective inhibitors of sulfate reduction | 
N.NS(=O)(=O)O [ammonium sulfamate] | very weak and nonspecific inhibitors | 
[O-][Cl+2]([O-])O [chlorate] | selective inhibitors of sulfidogenesis | 
OP(O)(O)=S [thiophosphate] | weak inhibitors and nonselective; also recorded: very weak, nonselective inhibitors of sulfidogenesis | 
[O]=[Mo](=[O])([O-])[O-] [molybdate] | specific inhibitors of sulfide production | selectivity index (SI = growth IC50/sulfide IC50) [1]: 100; intracellular ATP relative to controls [3]: ~10%; intracellular ATP relative to controls [4]: ~80%
phosphite | weak inhibitors and nonselective; also recorded: very weak, nonselective inhibitors of sulfidogenesis | 
[O]=[V]([O-])([O-])[O-] [vanadate] | specific inhibitors of sulfide production | 
CS(C)(=O)=O [dimethyl sulfone] |  | selectivity and potency as inhibitor of sulfidogenesis versus growth, in words [1, 5]: very weak and nonspecific inhibitors
